The source of these data is the supplement of paper PMC10949913.

Conditions in all cases: 48 h
For assay [1], the system named is NCI-H295R. Nature of the assay: AC50 viability; higher = less potent. The method, boiled down:
(§1)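 Three adrenocortical carcinoma cell lines were plated in 1,536-well plates at 500–1,000 cells/well in 5 µL medium, and 23 nL of each library compound was added at 11 concentrations. After 48 h, CellTiter-Glo was applied for 15 minutes at room temperature before luminescence was read. Each plate's signals were normalised to vehicle and empty-well controls. AC50 and area under the curve were taken from fitted concentration-response curves, with only inhibitory or non-responding curve classes retained.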

Assay [2] relates to CU-ACC2. Nature of the assay: AC50 viability; higher = less potent. The method, boiled down: as §1
Assay [3] concerns CU-ACC1. Briefly: AC50 viability; higher = less potent. The method, boiled down: as §1
The test system of assay [4] is NCI-H295R. Briefly: area under concentration-response curve (viability) (AUC (a.u.)); higher = less active. The method, boiled down: as §1
In assay [5] the test system is CU-ACC2. The description is as above. The method, boiled down:
as §1

Assay [6] concerns CU-ACC1. The description is as above. Put shortly: as §1

As to `COc1ccc(Nc2cc(-c3cnc(N)nc3)nc(N3CCOCC3)n2)cn1`, the AC50 viability came to 1.66 µM in the assay with NCI-H295R [1], 1.05 µM with CU-ACC2 [2] and 1.05 µM in the assay with CU-ACC1 [3]. Also, the “area under concentration-response curve” value with NCI-H295R [4] was determined as 392; in the assay on CU-ACC2 [5], 493; with CU-ACC1 [6], 413.

Take `Cn1cc(-c2ccc([S+](=O)([O-])n3ccc(/C=C/C(=O)Nc4ccccc4N)c3)cc2)cn1`: the AC50 viability in the assay on NCI-H295R [1] is 5.25 µM; with CU-ACC2 [2], 9.34 µM; in the assay on CU-ACC1 [3] it was 13.2 µM. Moreover, the “area under concentration-response curve” value with NCI-H295R [4] came to 352; with CU-ACC2 [5], 464; with CU-ACC1 [6], 377.

Take `CC1(N2CCC(n3c([C@@H]4CCCNC4)nc4ccccc43)CC2)CCCCCCC1`: the AC50 viability in the assay on NCI-H295R [1] stood at 11.8 µM; in the assay on CU-ACC2 [2], 13.2 µM; in the assay on CU-ACC1 [3], 10.5 µM. For the same compound, the “area under concentration-response curve” value worked out at 439 in the assay on NCI-H295R [4], 562 in the assay on CU-ACC2 [5] and 470 with CU-ACC1 [6].

As for `CC(C)C[C@H](NC(=O)[C@@H](NC(=O)c1cccc(-c2ccccc2)n1)[C@@H](C)O)B(O)O`, the AC50 viability in the assay with NCI-H295R [1] turned out to be 0.144 µM; in the assay with CU-ACC2 [2], 0.0723 µM; in the assay on CU-ACC1 [3], 0.0723 µM. Moreover, the “area under concentration-response curve” value was determined as 337 in the assay on NCI-H295R [4], 297 with CU-ACC2 [5] and 300 in the assay with CU-ACC1 [6].

For the compound `CNC(=O)c1ccccc1Nc1nc(Nc2ccc(N3CCOCC3)cc2OC)ncc1Cl`, the AC50 viability with NCI-H295R [1] stood at 0.525 µM; in the assay on CU-ACC2 [2], 4.17 µM; in the assay with CU-ACC1 [3] it was 16.6 µM. Further, the figures for the “area under concentration-response curve” value in the assay on NCI-H295R [4], in the assay on CU-ACC2 [5] and in the assay with CU-ACC1 [6] were 452, 483 and 435, respectively.

Take `CN(C)C/C=C/C(=O)Nc1ccc(C(=O)Nc2cccc(Nc3ncc(Cl)c(-c4c[nH]c5ccccc45)n3)c2)cc1`: the AC50 viability with NCI-H295R [1] stood at 1.48 µM; with CU-ACC2 [2], 0.332 µM; in the assay on CU-ACC1 [3], 0.661 µM. The “area under concentration-response curve” value in the assay with NCI-H295R [4] was determined as 406; in the assay with CU-ACC2 [5], 275; with CU-ACC1 [6] it was 363.

With `C=CC(=O)N1CC[C@@H](Oc2nc(Nc3ccc(N4CCC(N5CCN(C)CC5)CC4)cc3)c(C(N)=O)nc2CC)C1`, the AC50 viability in the assay with NCI-H295R [1], in the assay with CU-ACC2 [2] and in the assay on CU-ACC1 [3] was 8.11 µM each time. In addition, the figures for the “area under concentration-response curve” value in the assay with NCI-H295R [4], in the assay with CU-ACC2 [5] and with CU-ACC1 [6] were 529, 559 and 521, respectively.

Take `Cc1cnc(Nc2ccc(CN3CCOCC3)cc2)nc1Nc1cccc([S+](=O)([O-])NC(C)(C)C)c1`: the AC50 viability worked out at 9.34 µM in the assay on NCI-H295R [1], 11.8 µM in the assay with CU-ACC2 [2] and 20.9 µM with CU-ACC1 [3]. Also, the “area under concentration-response curve” value with NCI-H295R [4] amounted to 492; with CU-ACC2 [5], 509; in the assay with CU-ACC1 [6], 445.

In the case of `CCCCNc1ncc2c(-c3ccc(F)cc3)nn(C[C@H]3CC[C@H](N)CC3)c2n1`, the AC50 viability in the assay on NCI-H295R [1], with CU-ACC2 [2] and with CU-ACC1 [3] was 14.4 µM in each case. Further, the “area under concentration-response curve” value came to 550 in the assay with NCI-H295R [4], 611 with CU-ACC2 [5] and 523 in the assay on CU-ACC1 [6].

For the compound `COc1cccc2c(NCc3ccccc3)nc(-n3c(N)nc4ccccc43)nc12`, the figures for the AC50 viability with NCI-H295R [1], in the assay on CU-ACC2 [2] and in the assay with CU-ACC1 [3] were 3.32 µM, 3.72 µM and 3.32 µM, respectively. The results for the “area under concentration-response curve” value in the assay with NCI-H295R [4], in the assay with CU-ACC2 [5] and with CU-ACC1 [6] were 402, 450 and 373, respectively.

Regarding `COc1ccc(CCN(C)CCCOc2ccc([S+](=O)([O-])c3c(C(C)C)c4ccccc4n3C)cc2)cc1OC`, the AC50 viability in the assay on NCI-H295R [1] amounted to 13.2 µM; with CU-ACC2 [2], 20.9 µM; in the assay on CU-ACC1 [3], 10.5 µM. The “area under concentration-response curve” value was 427 with NCI-H295R [4], 565 with CU-ACC2 [5] and 448 with CU-ACC1 [6].

In the case of `CCc1cc(-c2n[nH]c(C)c2-c2ccc3c(c2)OCCO3)c(O)cc1O`, the AC50 viability in the assay with NCI-H295R [1] was 20.9 µM; in the assay with CU-ACC2 [2] it was 23.5 µM; in the assay with CU-ACC1 [3] it was 23.5 µM. The “area under concentration-response curve” value came out at 565 with NCI-H295R [4], 611 in the assay with CU-ACC2 [5] and 529 with CU-ACC1 [6].

`CC(C)C[C@H](NC(=O)CNC(=O)c1cc(Cl)ccc1Cl)B(O)O`: the AC50 viability in the assay on NCI-H295R [1] is 0.105 µM; with CU-ACC2 [2] it was 0.209 µM; in the assay with CU-ACC1 [3] it was 0.166 µM. Besides, the “area under concentration-response curve” value was determined as 408 in the assay with NCI-H295R [4], 373 with CU-ACC2 [5] and 329 with CU-ACC1 [6].

Take `COCCNCCc1cccc(Nc2ncc3c(n2)-c2ccccc2[C@H](c2ccccc2F)C3)c1`: the AC50 viability with NCI-H295R [1] was found to be 8.33 µM; in the assay on CU-ACC2 [2], 26.3 µM; with CU-ACC1 [3], 11.8 µM. In addition, the “area under concentration-response curve” value with NCI-H295R [4] is 467; in the assay on CU-ACC2 [5] it was 502; with CU-ACC1 [6], 496.

As for `COc1cc(C(=O)N2CCC(N3CCN(C)CC3)CC2)ccc1Nc1ncc2c(n1)N(C)c1ccccc1C(=O)N2C`, the AC50 viability is 16.6 µM with NCI-H295R [1], 20.9 µM with CU-ACC2 [2] and 26.3 µM with CU-ACC1 [3]. In addition, the entries for the “area under concentration-response curve” value in the assay on NCI-H295R [4], in the assay on CU-ACC2 [5] and in the assay on CU-ACC1 [6] were 389, 423 and 377, respectively.

Take `COc1cc2nccc(Oc3ccc(NC(=O)Nc4cc(C)on4)c(Cl)c3)c2cc1OC`: the figures for the AC50 viability in the assay on NCI-H295R [1], in the assay on CU-ACC2 [2] and in the assay with CU-ACC1 [3] were 14.8 µM, 29.5 µM and 14.8 µM, respectively. In addition, the “area under concentration-response curve” value with NCI-H295R [4] is 415; in the assay on CU-ACC2 [5], 516; in the assay with CU-ACC1 [6], 422.

Take `COC1=CC2=NC=CC(=C2C=C1)OC3=CN=C(NC(=O)C/4=C(C)/N(CC(C)(C)O)N(C4=O)C5=CC=CC=C5)C=C3`: the AC50 viability in the assay with NCI-H295R [1] worked out at 14.8 µM; with CU-ACC2 [2], 18.6 µM; in the assay on CU-ACC1 [3], 23.5 µM. The “area under concentration-response curve” value in the assay on NCI-H295R [4] stood at 369; in the assay on CU-ACC2 [5], 350; with CU-ACC1 [6], 354.

For the compound `Nc1ncnc2c1c(-c1cnc3[nH]ccc3c1)nn2C1CCCC1`, the figures for the AC50 viability in the assay on NCI-H295R [1], in the assay on CU-ACC2 [2] and with CU-ACC1 [3] were 5.9 µM, 13.2 µM and 5.9 µM, respectively. The “area under concentration-response curve” value in the assay with NCI-H295R [4] was determined as 414; in the assay with CU-ACC2 [5], 338; with CU-ACC1 [6], 395.

On to `CCN1CCN(C(=O)Cc2ccc(Nc3ncc(F)c(Nc4ccc(C(=O)Nc5ccccc5Cl)cc4)n3)cc2)CC1`, for which the AC50 viability in the assay on NCI-H295R [1] came to 7.42 µM; in the assay on CU-ACC2 [2], 8.33 µM; with CU-ACC1 [3], 9.34 µM. The entries for the “area under concentration-response curve” value with NCI-H295R [4], in the assay with CU-ACC2 [5] and in the assay on CU-ACC1 [6] were 389, 490 and 412, respectively.

With `c1ccc(Cn2c(-c3ccc(OCC(C4CCNCC4)n4c(-c5ccccc5)nc5ccccc54)cc3)nc3ccccc32)cc1` (configuration not stated), the AC50 viability came to 9.34 µM in the assay with NCI-H295R [1], 11.8 µM in the assay on CU-ACC2 [2] and 11.8 µM with CU-ACC1 [3]. The “area under concentration-response curve” value in the assay on NCI-H295R [4] amounted to 363; in the assay with CU-ACC2 [5], 391; in the assay on CU-ACC1 [6], 387.

For the compound `C[C@@H](NC(=O)c1ncnc(N)c1Cl)c1ncc(C(=O)Nc2cc(C(F)(F)F)c(Cl)cn2)s1`, the AC50 viability in the assay on NCI-H295R [1], with CU-ACC2 [2] and in the assay on CU-ACC1 [3] was 18.6 µM throughout. In addition, the “area under concentration-response curve” value is 318 with NCI-H295R [4], 316 in the assay on CU-ACC2 [5] and 295 in the assay on CU-ACC1 [6].

Turning to `CC(C)[C@@H](N(CCCN)C(=O)C1=CC=C(C)C=C1)C/2=N/C3=CC(=CC=C3C(=O)N2CC4=CC=CC=C4)Cl`, the results for the AC50 viability with NCI-H295R [1], in the assay with CU-ACC2 [2] and with CU-ACC1 [3] were 5.9 µM, 26.3 µM and 20.9 µM, respectively. For the same compound, the “area under concentration-response curve” value with NCI-H295R [4] is 410; in the assay with CU-ACC2 [5], 567; in the assay with CU-ACC1 [6], 440.
